For data set [1], the system named is lesion of tubulointerstitial tissue / glomerulus. Briefly: Suppression of renal lesion in vivo by active metabolites (model not stated).
Data set [2] is described as follows: Acute and chronic toxicity tests (Test Example 5). The format is in vivo. The conditions noted are these: subcutaneously 90 mg/kg/day for ten days. Here is the method:
Acute and Chronic Toxicity Tests
Toxicity test of benzyl 2-chloro-5-oxotetrahydrofuran-2-carboxylate represented by the formula (6-1) manufactured in Example 8 and ethyl 2-ketoglutarate represented by the formula (9-1) was carried out.

Data set [3] concerns induction of effector macrophage by contact of human PBMC with lipopolysaccharide. Put plainly: SPFC production by LPS stimulation (Test Example 1). The format is cell-based. Here is the method:
A suppressive effect of the test compound to effector macrophage induction was investigated in vitro by an induction and production system of spontaneous plaque-forming cell (SPEC) mentioned in M. Ishibashi, S. Jiang, Y. Kokado, S. Takahara, T. Sonoda: Immunopharmacologic effects of immunosuppressive agents explored by a new effector generation assay. Transplant Proc., 21: 1854-1858, 1989.
Heparin-added peripheral blood (40 ml) was collected from a healthy person and the same amount of EDTA-added physiological saline was added. PBMC were obtained by a specific gravity centrifugal method using Ficoll-Hypaque (manufactured by Pharmacia Fine Chemicals). Self-plasma was added thereto and allowed to stand at 37° C. for 10 minutes and platelets were removed by a low-speed centrifugal separation. RPMI 1640 liquid containing 15 μg/ml of gentamicin and 2 mM L-glutamine was used for washing the PBMC. Concentration of the PBMC was adjusted to 2×10^6 cells/ml using the same liquid.
Each 200 μl of a solution containing 2×10^6 PBMC/ml prepared in the step 1 were added to each well of a micro test plate, lipopolysaccharide (hereinafter, abbreviated as LPS) was diluted with the RPMI 1640 liquid to make the final concentration 80 μg/ml and the said LPS solution was added to each well of the 200 μl-micro test plate. Further, each 50 μl of human serum of type AB were added so as to make the concentration 10% by weight. Two such micro test plates were prepared.
After that, to the above two micro test plates was added a solution where the test compound was diluted with 1% by weight of DMSO so as to make the concentration of the test compound 1 μM. Similarly were prepared each two micro test plates where the final concentrations of the test compound were 0.1 μM, 0.01 μM and 0.001 μM.
The culture liquid prepared as such was incubated for 6 days at 37° C. in 5% CO2.
The effector macrophage induced after the incubation was all recovered using a rubber-policeman (spatula made of rubber). A Hanks solution containing 5 μg/ml of gentamicin was used for washing and, using the said solution, there was prepared a solution where the concentration of the induced effector macrophage was 2×10^6 per ml.
With regard to autologous erythrocytes, those which were preserved at 4° C. in a phosphate physiological saline (hereinafter, abbreviated as PBS) to which 0.1% by weight of AB serum and autologous erythrocytes obtained from PBMC separation were used were used. The preserved autologous erythrocytes were washed for three times with a Hanks solution to which no serum was added and made into a solution of 4% by weight concentration using the said Hanks solution. Poly-L-lysine was added to a Terasaki plate and washed with PBS every 20 minutes at 37° C., the above-mentioned autologous erythrocyte solution was added thereto immediately, the mixture was allowed to stand at 37° C. for 30 minutes and the erythrocytes which were not adhered to the plate were removed to prepare a Terasaki plate to which self-erythrocytes in a monolayer were adhered.
A Hanks solution (4 μl) was added to the said Terasaki plate, 4 μl of a solution containing the induced effector macrophage obtained in the step 3 were added thereto and the mixture was allowed to stand at 37° C. for 2 hours. After completion of the reaction, it was fixed by formalin. Numbers of the produced SPFC which were adhered or phagocytized were measured.
A mean SPFC production number was calculated from the measured values of SPFC production when the concentration of the test compound was the same. SPFC production number per 1×10^6 of the induced effector macrophage was calculated and, from the recovered induced effector macrophage numbers, total SPFC production amount (S2) was calculated.
As a control, no test compound was added and the same operation as above was carried out to calculate the total SPFC production amount (S1). […]

Read-outs that look alike come from different tables or passages of the source.

Regarding `CCOC(=O)C(=O)CCC(=O)O` [(9-1), ethyl 2-ketoglutarate], the “suppression of lesion in tubulointerstitial tissue in vivo” value in data set [1] is recorded as “shows an activity for suppressing”. Besides, the toxicity finding result in data set [2] is “an increase in weights of the liver and the spleen in a light degree”. Moreover, the IC50 in data set [3] (Table 5, read-out: Inhibiting Concentration for SPEC Production by LPS Stimulation (μM: IC50)) is greater than 1 µM; in data set [3] (human PBMC with LPS 80 μg/ml, incubated 6 days, Table 1, read-out: SPFC Production Inhibiting Concentration by LPS Stimulation (μM: IC50)) it was greater than 1 µM.
